pIC50: −log10 of the molar value. Several values for one entry are separate records, joined by “and”; a condition that tells them apart may be missing. Identical values can stand only once.
Test system: LG0703-F498-PDC complex spheroid growth
Assay: Anticancer human tumor LG0703-F498-PDC patient-derived lung adenocarcinoma cell line growth inhibition [AhR]
Conditions: for viability, T/C: stronger effect = lower value
Description: Multicellular complex tumor spheroid response to aryl hydrocarbon receptor antagonists in combination with a variety of drugs and investigational agents in selected tumor cell lines
The current study was undertaken to assess response to aryl hydrocarbon receptor antagonists in combination with standard-of-care drugs and investigational agents in solid tumor complex spheroid models. Complex spheroids include a stromal component modeled by human endothelial cells (HUVEC) and fibroblasts modeled by human mesenchymal stem cells (MSCs). The concentration ranges selected for each drug and investigational agent were based upon clinically achievable concentrations if the clinical Cmax of the agent was known.
Compounds. The drugs and investigational agents: BAY 2416964 (NSC825713), GNF351 (NSC835774), CH-223191 (NSC835775), CPI-455 (NSC825282), aza-TdCyd (NSC777586), decitabine (NSC127716), belinostat (NSC758774), entinostat (NSC756642), pevonedistat (NSC761192), tazemetostat (NSC777109), talazoparib (NSC765396), olaparib (NSC753686), selinexor (NSC780203), nedisertib (M3814, NSC802822), bortezomib (NSC756655), venetoclax (NSC766270), doxorubicin (NSC123127), elimusertib (BAY189344, NSC800525), ceralasertib (AZD6738, NSC777638), TAK-243 (NSC785004), alisertib (NSC759677), etoposide (NSC141540), topotecan (NSC609699), eribulin (NSC707389), gemcitabine (NSC613327), carboplatin (NSC241240), cisplatin (NSC119875), and SN-38 (NSC673596) were obtained from the National Cancer Institute (NCI) Developmental Therapeutics Program Chemical Repository (32). The FDA-approved anticancer drug set is available from the Developmental Therapeutics Program at https://dtp.cancer.gov/organization/dscb/obtaining/available plates.htm. […] The stock solutions were prepared in dimethyl sulfoxide (DMSO, Sigma-Aldrich, St. Louis, MO, cat. D2650), except for the platinum compounds which were prepared in saline (Quality Biological, Gaithersburg, MD, cat. 114-055-101), at 800-fold the tested concentration and stored at -70 degrees C prior to their use. All drugs and investigational agents were tested over a range starting from a high concentration at or near the clinical Cmax and decreasing in half-log increments. If the clinical Cmax for an agent had not been determined, the highest concentration tested was 10 microM (Table 1).
Cell Culture. All cells were maintained in an incubator at 37 degrees C and 5% CO2 with 95% humidity. The PDC lines were cultured according to standard operating procedures established by the NCI PDMR (https://pdmr.cancer.gov). Briefly, all PDCs were thawed and cultured in Matrigel-coated flasks prepared with a working solution of 1X Ham's F-12 nutrient mix, without supplementation (Invitrogen, Waltham, MA, cat. 11765054), 100 U/mL penicillin-streptomycin (Invitrogen, cat. 15140122), and 2.5% Matrigel (Corning Inc., Corning, NY, cat. 354248) for the first three passages. All PDCs were cultured in complete DMEM/F-12 media containing advanced DMEM/F-12 (Invitrogen, cat. 12634028), 4.9% defined fetal bovine serum, heat inactivated (HyClone Laboratories Inc., Logan, UT, cat. SH30070.03HI), 389 ng/mL hydrocortisone (Sigma-Aldrich, cat. H4001), 9.7 ng/mL human EGF recombinant protein (Invitrogen, cat. PHG0313), 23.4 microg/mL adenine (Sigma-Aldrich, cat. A2786), 97.3 U/mL penicillin-streptomycin (Invitrogen, cat. 15140122), 1.9 mM L-glutamine (Invitrogen, cat. 25030081), and 9.7 microM Y-27632 dihydrochloride (Tocris Bioscience, Bristol, United Kingdom, cat. 1254). The PDCs were cultured in complete DMEM/F12 media without 10 microM Y-27632 dihydrochloride for at least two passages prior to the screen. The established cell lines NCI-H1341 and […] were cultured in DMEM/F-12, HEPES (Invitrogen, cat. 11330032), 5% defined fetal bovine serum (HyClone Laboratories Inc., cat. SH30070.03), ITS premix universal culture supplement [insulin (5 microg/mL), transferrin (5 microg/mL), and selenious acid (5 ng/mL)] […]
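Note: luminescence taken as a proxy for viable cell amount.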
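Throughout, for viability, T/C: percent of DMSO vehicle control where 100% means growth equal to vehicle.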

Structure (SMILES) | pIC50 (curve of compound) | viability, T/C (compound 0.0316 µM) | viability, T/C (compound 0.1 µM) | viability, T/C (compound 0.316 µM) | viability, T/C (compound 1 µM) | viability, T/C (compound 3.16 µM) | viability, T/C (compound 10 µM) | further results
COc1cccc2c1C(=O)c1c(O)c3c(c(O)c1C2=O)CC(O)(C(=O)CO)CC3OC1CC(N)C(O)C(C)O1 (centres undefined) | 6.20 and 6.08 and 6.09 | 88% and 108% (2×) | 82.8% and 79.7% and 87.9% | 65.5% and 75.9% and 69.5% | 40.7% and 49.1% and 47.5% | 9.35% and 15.7% and 20.4% | 0.71% and 0.83% and 1.09% | 
Cc1ccccc1N=Nc1ccc(NC(=O)c2ccnn2C)c(C)c1 |  |  |  |  | 90.5% [middle of 20 runs] | 85.7% [middle of 20 runs] |  | pIC50 (compound alone, run of 06/14/2022): < 5.00
Cc1cncc(-c2nc(NCCc3c[nH]c4ccccc34)c3ncn(C(C)C)c3n2)c1 |  |  |  |  |  |  | 0.88% [middle of 19 runs] | 
Nc1ccccc1NC(=O)c1ccc(CNC(=O)OCc2cccnc2)cc1 | 5.94 and 6.04 and 6.28 | 90.9% and 98.6% and 92.2% | 105% (2×) and 83.9% | 94.5% and 81.1% and 70.5% | 55.2% and 47.8% and 24.5% | 10.7% and 14.8% and 2.77% | 0.41% and 1.49% and 0.42% | 
Nc1ncn(C2CC(O)C(CO)S2)c(=O)n1 (centres undefined) | < 6.52 |  |  |  |  |  |  | viability, T/C (compound 0.000949 µM): 103% and 105% and 108%; viability, T/C (compound 0.003 µM): 92.8% and 98.3% and 109%; viability, T/C (compound 0.00949 µM): 95.4% and 103% and 105%; viability, T/C (compound 0.03 µM): 99.9% and 97.8% and 99.8%; viability, T/C (compound 0.0949 µM): 113% (2×) and 107%; viability, T/C (compound 0.3 µM): 97.1% and 96.6% and 98.7%
O=C(C=Cn1cnc(-c2cc(C(F)(F)F)cc(C(F)(F)F)c2)n1)NNc1cnccn1 | 6.67 and 6.96 and 7.22 |  |  |  |  |  |  | viability, T/C (compound 0.00949 µM): 84.1% and 93.9% and 79.2%; viability, T/C (compound 0.03 µM): 83.7% and 79.7% and 62.9%; viability, T/C (compound 0.0949 µM): 55.5% and 52% and 41.8%; viability, T/C (compound 0.3 µM): 48.2% and 37.7% and 35.7%; viability, T/C (compound 0.949 µM): 40.9% and 39.8% and 39.1%; viability, T/C (compound 3 µM): 31.4% and 35.3% and 32.7%
O=C(c1cc(Cc2n[nH]c(=O)c3ccccc23)ccc1F)N1CCN(C(=O)C2CC2)CC1 | < 5.00 | 98.7% and 113% and 108% | 106% and 89.2% and 102% | 103% and 91.6% and 85.8% | 99.9% and 95.1% and 114% | 88.3% and 110% and 109% | 74.2% and 90.4% and 94.5% | 

Further lines, with some results ahead:

pIC50 (curve of compound) | Structure (SMILES) | viability, T/C (compound 0.0316 µM) | viability, T/C (compound 0.1 µM) | viability, T/C (compound 0.316 µM) | viability, T/C (compound 1 µM) | viability, T/C (compound 3.16 µM) | viability, T/C (compound 10 µM) | further results
< 7.00 | Cn1ncnc1C1c2n[nH]c(=O)c3cc(F)cc(c23)NC1c1ccc(F)cc1 (centres undefined) | 107% and 106% and 95.7% | 86.6% and 102% and 90% |  |  |  |  | viability, T/C (compound 0.000316 µM): 97.7% and 91.1% and 110%; viability, T/C (compound 0.001 µM): 106% and 103% and 98.6%; viability, T/C (compound 0.00316 µM): 96.4% and 111% and 102%; viability, T/C (compound 0.01 µM): 94% and 97.9% and 89.2%
5.25 and 5.05 and 5.27 | NS(=O)(=O)OCC1CC(n2ccc3c(NC4CCc5ccccc54)ncnc32)CC1O (centres undefined) | 94.3% and 100% and 101% | 105% and 96.8% and 99.1% | 107% and 102% and 97.8% | 89.2% and 103% and 86.7% | 65.2% and 76.8% and 62.9% | 35.8% and 47% and 34.9% | 
> 7.50 | Nc1ccn(C2OC(CO)C(O)C2(F)F)c(=O)n1 (centres undefined) | 38% and 42% and 41.4% | 37.1% and 44.8% and 35.2% | 35.5% and 47.5% and 34.7% | 32.2% and 38.6% and 33.6% | 26.9% and 34.3% and 30.5% | 20.3% and 28.3% and 21.4% | 
< 6.00 | Nc1ncn(C2CC(O)C(CO)O2)c(=O)n1 (centres undefined) | 107% and 91.4% and 87.8% | 88.2% and 98.2% and 82.9% | 99.3% and 80.2% and 89.1% | 80% and 86.7% and 87.6% |  |  | viability, T/C (compound 0.00316 µM): 101% (2×) and 107%; viability, T/C (compound 0.01 µM): 102% (2×) and 103%
6.02 and 6.08 | O=C(C=Cc1cccc(S(=O)(=O)Nc2ccccc2)c1)NO | 101% and 111% and 110% | 111% and 119% and 116% | 94% and 91.7% and 82.7% | 48.1% and 42% and 45.8% | 12% and 11.7% and 7.36% | 1.95% and 2.42% and 1.39% | 
